The text below walks through data of ChEMBL document CHEMBL4406819, “Targeting the subpocket in xanthine oxidase: Design, synthesis, and biological evaluation of 2-[4-alkoxy-3-(1H-tetrazol-1-yl) phenyl]-6-oxo-1,6-dihydropyrimidine-5-carboxylic acid derivatives” (Eur J Med Chem, 2019).

Molecules are shown by their SMILES. Calls of active or inactive are those of the source. No cut-off for these calls is given here.

The test system of test [1] is Rattus norvegicus. The test is described as follows: Hypouricemic activity in Sprague-Dawley rat model of potassium oxonate-induced acute hyperuricemia assessed as decrease in serum uric acid level at 5 mg/kg, ig administered 1 hr before potassium oxonate challenge and measured after 3 hrs.
The subject of test [2] is Rattus norvegicus. The test is described as follows: Hypouricemic activity in Sprague-Dawley rat model of potassium oxonate-induced acute hyperuricemia assessed as decrease in serum uric acid level at 10 mg/kg, ig administered 1 hr before potassium oxonate challenge and measured after 3 hrs.

As for `Cc1nc(-c2ccc(OCC(C)C)c(C#N)c2)sc1C(=O)O`, the result in the test with Rattus norvegicus [1] was Active.

`Oc1ncnc2[nH]ncc12`: the outcome in the test on Rattus norvegicus [2] was Active.
